Data from patent US11040954B1, “CXCR3 receptor agonists” (RECEPTOS LLC, priority 2016, dated 2021).

Molecular target: T1, CXCR3 (Homo sapiens, UniProt P49682)
T1 construct: host or cells: CHO-K1 (cAMP Hunter CHOK1 CXCR3 Gi cell line)
T1 sequence (P49682 1-368): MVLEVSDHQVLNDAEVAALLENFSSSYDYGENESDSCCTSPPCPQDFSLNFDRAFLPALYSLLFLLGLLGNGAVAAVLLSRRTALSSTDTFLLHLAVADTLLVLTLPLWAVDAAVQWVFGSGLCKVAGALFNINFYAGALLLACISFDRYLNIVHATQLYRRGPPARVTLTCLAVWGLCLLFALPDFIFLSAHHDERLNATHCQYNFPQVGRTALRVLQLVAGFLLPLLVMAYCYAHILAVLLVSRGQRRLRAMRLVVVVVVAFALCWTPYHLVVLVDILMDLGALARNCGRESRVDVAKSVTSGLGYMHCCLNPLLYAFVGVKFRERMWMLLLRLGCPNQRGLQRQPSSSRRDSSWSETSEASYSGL
Assay: CXCR3 cAMP agonist assay (cAMP Hunter CHOK1 CXCR3 Gi cell line, forskolin-stimulated, HitHunter cAMP detection)
Assay type: cell-based
Settings: cAMP Hunter CHOK1 CXCR3 Gi cells, 20 μM forskolin, 30 minutes; read-out: Activity (CXCR3 cAMP agonist assay compound EC50)
Protocol: The cAMP Hunter™ CHOK1 CXCR3 Gi cell line was purchased from DiscoveRx. Cells were seeded into a 96-well white assay plate at 50,000 cells/well/94 μl assay buffer (Hank's Buffered Saline Solution, 10 mM HEPES, 0.1% fatty acid-free BSA, pH 7.4) and immediately assayed in suspension. Forskolin was added to 20 μM (5 μl of 400 μM stock) simultaneously with a 12-point dose response curve of compound at 0-10 μM (1 μl of 100× stock in 100% DMSO), and cells were incubated for 30 minutes. A cAMP standard curve is run as an assay control. A CXCL11 dose response was included to determine maximum efficacy. Direct detection of cAMP was carried out using the DiscoveRx HitHunter cAMP kit according to manufacturer's instructions, and luminescence was read using a SpectraMax M5 plate reader.

COc1ccccc1NC(=O)[C@H](CCN)NC(=O)[C@@H]1Cc2ccccc2CN1C(=O)CCC(=O)c1ccccc1 [Compound 1-35]
EC50: 0.25 to 0.5 µM

COc1cc(C)c(Cl)cc1NC(=O)[C@H](CCN)NC(=O)[C@@H]1Cc2ccccc2CN1C(=O)CCC(=O)c1ccccc1 [Compound 1-36]
EC50: < 0.05 µM

COc1cc(C)ccc1NC(=O)[C@H](CCN)NC(=O)[C@@H]1Cc2ccccc2CN1C(=O)CCC(=O)c1ccccc1 [Compound 1-37]
EC50: 0.05 to 0.25 µM

COc1ccc(C)cc1NC(=O)[C@H](CCN)NC(=O)[C@@H]1Cc2ccccc2CN1C(=O)CCC(=O)c1ccccc1 [Compound 1-38]
EC50: < 0.05 µM

COc1cc2c(cc1NC(=O)[C@H](CCN)NC(=O)[C@@H]1Cc3ccccc3CN1C(=O)CCC(=O)c1ccccc1)CCC2 [Compound 1-39]
EC50: < 0.05 µM

NCC[C@H](NC(=O)[C@@H]1Cc2ccccc2CN1C(=O)CCC(=O)c1ccccc1)C(=O)Nc1ccc(Cl)c(C(F)(F)F)c1 [Compound 2-4]
EC50: 0.05 to 0.25 µM

NCC[C@H](NC(=O)[C@@H]1Cc2ccccc2CN1C(=O)CCC(=O)c1ccccc1)C(=O)Nc1cccc(C(F)(F)F)c1 [Compound 2-6]
EC50: 0.05 to 0.25 µM

NCC[C@H](NC(=O)[C@@H]1Cc2ccccc2CN1C(=O)CCC(=O)c1ccccc1)C(=O)Nc1ccc(F)c(F)c1 [Compound 2-8]
EC50: > 0.5 µM

NCC[C@H](NC(=O)[C@@H]1Cc2ccccc2CN1C(=O)CCC(=O)c1ccccc1)C(=O)Nc1ccc(Cl)cc1F [Compound 2-9]
EC50: 0.05 to 0.25 µM

Cc1cc(Cl)ccc1NC(=O)[C@H](CCN)NC(=O)[C@@H]1Cc2ccccc2CN1C(=O)CCC(=O)c1ccccc1 [Compound 2-10]
EC50: 0.25 to 0.5 µM

NCC[C@H](NC(=O)[C@@H]1Cc2ccccc2CN1C(=O)CCC(=O)c1ccccc1)C(=O)Nc1ccc(C(F)(F)F)c(F)c1 [Compound 2-11]
EC50: 0.25 to 0.5 µM

NCC[C@H](NC(=O)[C@@H]1Cc2ccccc2CN1C(=O)CCC(=O)c1ccccc1)C(=O)Nc1ccc(Cl)c(F)c1 [Compound 2-12]
EC50: 0.25 to 0.5 µM

NCC[C@H](NC(=O)[C@@H]1Cc2ccccc2CN1C(=O)CCC(=O)c1ccccc1)C(=O)Nc1ccc(C(F)(F)F)c(Cl)c1 [Compound 2-13]
EC50: > 0.5 µM

NCC[C@H](NC(=O)[C@@H]1Cc2ccccc2CN1C(=O)CCC(=O)c1ccccc1)C(=O)Nc1ccc(F)c(C(F)(F)F)c1 [Compound 2-14]
EC50: < 0.05 µM

Cc1ccc(NC(=O)[C@H](CCN)NC(=O)[C@@H]2Cc3ccccc3CN2C(=O)CCC(=O)c2ccccc2)cc1Cl [Compound 2-16]
EC50: < 0.05 µM

NCC[C@H](NC(=O)[C@@H]1Cc2ccccc2CN1C(=O)CCC(=O)c1ccccc1)C(=O)Nc1cc(Cl)cc(Cl)c1 [Compound 2-17]
EC50: 0.05 to 0.25 µM

NCC[C@H](NC(=O)[C@@H]1Cc2ccccc2CN1C(=O)CCC(=O)c1ccccc1)C(=O)Nc1cc(Cl)c(Cl)cc1F [Compound 2-20]
EC50: 0.05 to 0.25 µM

COc1cc(Cl)c(C)cc1NC(=O)[C@H](CCN)NC(=O)[C@@H]1Cc2ccccc2CN1C(=O)CCC(=O)c1ccccc1 [Compound 2-25]
EC50: < 0.05 µM

Cc1cc(NC(=O)[C@H](CCN)NC(=O)[C@@H]2Cc3ccccc3CN2C(=O)CCC(=O)c2ccccc2)ccc1C(F)(F)F [Compound 2-27]
EC50: 0.05 to 0.25 µM

NCC[C@H](NC(=O)[C@@H]1Cc2ccccc2CN1C(=O)CCC(=O)c1ccccc1)C(=O)Nc1ccc2ccccc2c1 [Compound 2-28]
EC50: < 0.05 µM

NCC[C@H](NC(=O)[C@@H]1Cc2ccccc2CN1C(=O)CCC(=O)c1ccccc1)C(=O)Nc1cccc(-c2ccccc2)c1 [Compound 2-29]
EC50: 0.25 to 0.5 µM

CCc1cc(Cl)c(Cl)cc1NC(=O)[C@H](CCN)NC(=O)[C@@H]1Cc2ccccc2CN1C(=O)CCC(=O)c1ccccc1 [Compound 2-30]
EC50: 0.05 to 0.25 µM

Cc1ccc(NC(=O)[C@H](CCN)NC(=O)[C@@H]2Cc3ccccc3CN2C(=O)CCC(=O)c2ccccc2)c(F)c1 [Compound 2-31]
EC50: 0.05 to 0.25 µM

Cc1cccc(NC(=O)[C@H](CCN)NC(=O)[C@@H]2Cc3ccccc3CN2C(=O)CCC(=O)c2ccccc2)c1F [Compound 2-32]
EC50: < 0.05 µM

Cc1ccc(F)c(NC(=O)[C@H](CCN)NC(=O)[C@@H]2Cc3ccccc3CN2C(=O)CCC(=O)c2ccccc2)c1 [Compound 2-33]
EC50: < 0.05 µM

NCC[C@H](NC(=O)[C@@H]1Cc2ccccc2CN1C(=O)CCC(=O)c1ccccc1)C(=O)Nc1cccc(Cl)c1F [Compound 2-34]
EC50: < 0.05 µM

Cc1ccc(Cl)c(NC(=O)[C@H](CCN)NC(=O)[C@@H]2Cc3ccccc3CN2C(=O)CCC(=O)c2ccccc2)c1 [Compound 2-35]
EC50: 0.05 to 0.25 µM

Cc1ccc(NC(=O)[C@H](CCN)NC(=O)[C@@H]2Cc3ccccc3CN2C(=O)CCC(=O)c2ccccc2)c(Cl)c1 [Compound 2-36]
EC50: 0.25 to 0.5 µM

NCC[C@H](NC(=O)[C@@H]1Cc2ccccc2CN1C(=O)CCC(=O)c1ccccc1)C(=O)Nc1cc(Cl)ccc1F [Compound 2-37]
EC50: 0.05 to 0.25 µM

Cc1cc(NC(=O)[C@H](CCN)NC(=O)[C@@H]2Cc3ccccc3CN2C(=O)CCC(=O)c2ccccc2)c(I)cc1Cl [Compound 2-38]
EC50: < 0.05 µM

Cc1cc(NC(=O)[C@H](CCN)NC(=O)[C@@H]2Cc3ccccc3CN2C(=O)CCC(=O)c2ccccc2)cc(C)c1Cl [Compound 2-39]
EC50: < 0.05 µM

Cc1cc(NC(=O)[C@H](CCN)NC(=O)[C@@H]2Cc3ccccc3CN2C(=O)CCC(=O)c2ccccc2)cc(Br)c1Cl [Compound 2-40]
EC50: < 0.05 µM

CCc1cc(Cl)c(C)cc1NC(=O)[C@H](CCN)NC(=O)[C@@H]1Cc2ccccc2CN1C(=O)CCC(=O)c1ccccc1 [Compound 2-41]
EC50: 0.05 to 0.25 µM

NCC[C@H](NC(=O)[C@@H]1Cc2ccccc2CN1C(=O)CCC(=O)c1ccccc1)C(=O)Nc1ccc2ccncc2c1 [Compound 2-42]
EC50: > 0.5 µM

NCC[C@H](NC(=O)[C@@H]1Cc2ccccc2CN1C(=O)CCC(=O)c1ccccc1)C(=O)Nc1ccc2ncccc2c1 [Compound 2-43]
EC50: 0.05 to 0.25 µM

NCC[C@H](NC(=O)[C@@H]1Cc2ccccc2CN1C(=O)CCC(=O)c1ccccc1)C(=O)Nc1cnc2ccccc2c1 [Compound 2-44]
EC50: < 0.05 µM

NCC[C@H](NC(=O)[C@@H]1Cc2ccccc2CN1C(=O)CCC(=O)c1ccccc1)C(=O)Nc1ccc2cccnc2c1 [Compound 2-45]
EC50: 0.25 to 0.5 µM

NCC[C@H](NC(=O)[C@@H]1Cc2ccccc2CN1C(=O)CCC(=O)c1ccccc1)C(=O)Nc1ccc2c(c1)CCCC2 [Compound 2-46]
EC50: < 0.05 µM

CCc1c(NC(=O)[C@H](CCN)NC(=O)[C@@H]2Cc3ccccc3CN2C(=O)CCC(=O)c2ccccc2)ccc(Cl)c1Cl [Compound 2-48]
EC50: 0.05 to 0.25 µM

Cc1cccc(NC(=O)[C@H](CCN)NC(=O)[C@@H]2Cc3ccccc3CN2C(=O)CCC(=O)c2ccccc2)c1O [Compound 2-50]
EC50: 0.25 to 0.5 µM

COc1c(C)cccc1NC(=O)[C@H](CCN)NC(=O)[C@@H]1Cc2ccccc2CN1C(=O)CCC(=O)c1ccccc1 [Compound 2-51]
EC50: 0.05 to 0.25 µM

NCC[C@H](NC(=O)[C@@H]1Cc2ccccc2CN1C(=O)CCC(=O)c1ccccc1)C(=O)Nc1ccc(Cl)cc1Cl [Compound 2-52]
EC50: 0.05 to 0.25 µM

CCc1c(C)cccc1NC(=O)[C@H](CCN)NC(=O)[C@@H]1Cc2ccccc2CN1C(=O)CCC(=O)c1ccccc1 [Compound 2-53]
EC50: 0.05 to 0.25 µM

CCc1c(NC(=O)[C@H](CCN)NC(=O)[C@@H]2Cc3ccccc3CN2C(=O)CCC(=O)c2ccccc2)ccc(Cl)c1C [Compound 2-54]
EC50: > 0.5 µM

CCc1ccc(NC(=O)[C@H](CCN)NC(=O)[C@@H]2Cc3ccccc3CN2C(=O)CCC(=O)c2ccccc2)c(F)c1 [Compound 2-56]
EC50: 0.25 to 0.5 µM

COc1c(NC(=O)[C@H](CCN)NC(=O)[C@@H]2Cc3ccccc3CN2C(=O)CCC(=O)c2ccccc2)ccc2c1CCC2 [Compound 2-58]
EC50: 0.05 to 0.25 µM

COc1cc2c(cc1NC(=O)[C@H](CCN)NC(=O)[C@@H]1Cc3ccccc3CN1C(=O)CCC(=O)c1ccccc1)CCCC2 [Compound 2-59]
EC50: 0.25 to 0.5 µM

COc1cc(F)c(C)cc1NC(=O)[C@H](CCN)NC(=O)[C@@H]1Cc2ccccc2CN1C(=O)CCC(=O)c1ccccc1 [Compound 2-60]
EC50: 0.05 to 0.25 µM

COc1c(NC(=O)[C@H](CCN)NC(=O)[C@@H]2Cc3ccccc3CN2C(=O)CCC(=O)c2ccccc2)ccc(C)c1C [Compound 2-61]
EC50: > 0.5 µM

COc1c(NC(=O)[C@H](CCN)NC(=O)[C@@H]2Cc3ccccc3CN2C(=O)CCC(=O)c2ccccc2)ccc2c1CCCC2 [Compound 2-62]
EC50: 0.05 to 0.25 µM

NCC[C@H](NC(=O)[C@@H]1Cc2ccccc2CN1C(=O)CCC(=O)c1ccccc1)C(=O)Nc1ccc2c(c1)OCO2 [Compound 2-63]
EC50: 0.05 to 0.25 µM

Cc1nc2ccc(NC(=O)[C@H](CCN)NC(=O)[C@@H]3Cc4ccccc4CN3C(=O)CCC(=O)c3ccccc3)cc2s1 [Compound 2-64]
EC50: 0.25 to 0.5 µM

NCC[C@H](NC(=O)[C@@H]1Cc2ccccc2CN1C(=O)CCC(=O)c1ccccc1)C(=O)Nc1ccc2ncsc2c1 [Compound 2-65]
EC50: 0.05 to 0.25 µM

NCC[C@H](NC(=O)[C@@H]1Cc2ccccc2CN1C(=O)CCC(=O)c1ccccc1)C(=O)NC1Cc2ccccc2C1 [Compound 2-66]
EC50: < 0.05 µM

NCC[C@H](NC(=O)[C@@H]1Cc2ccccc2CN1C(=O)CCC(=O)c1ccccc1)C(=O)Nc1cccc2c1CCC2 [Compound 2-67]
EC50: < 0.05 µM
